# Reference: the supplement of paper PMC4862054
# Tested on: HDQ-P1
# Test: normalised response (% of control), CellTiter-Glo; higher = more viable cells (100 = DMSO, 0 = benzethonium chloride kill control)
# Conditions: incubation time: 72 h
# Method: (§1)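 DSRT, 72 h incubation, CellTox Green / CellTiter-Glo readout. Signal is normalised to DMSO and benzethonium chloride controls. Value is the normalised response at dose 3.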
row,Compound,normalised response
1,Nc1nc(F)nc2c1ncn2[C@@H]1O[C@H](CO)[C@@H](O)[C@@H]1O [Fludarabine] (100 nM),98.8%
2,CNC(=O)c1cc(Oc2ccc(NC(=O)Nc3cc(C(C)(C)C)nn3-c3ccc4ncccc4c3)c(F)c2)ccn1 [Rebastinib] (10 nM),107%
3,COc1cc2c(Oc3ccc4[nH]c(C)cc4c3F)ncnc2cc1OCCCN1CCCC1 [Cediranib] (10 nM),100%
4,C=CC(=O)N1CCC[C@@H](n2nc(-c3ccc(Oc4ccccc4)cc3)c3c(N)ncnc32)C1 [Ibrutinib] (10 nM),89%
5,O=C(Cc1ccc(-c2ccc(OCCN3CCOCC3)cc2)cn1)NCc1ccccc1 [KX2-391] (100 nM),72.6%
6,O=C(/C=C/c1cccnc1)NCCCCC1CCN(C(=O)c2ccccc2)CC1 [Daporinad] (10 nM),74.4%
7,Nc1ncn([C@H]2C[C@H](O)[C@@H](CO)O2)c(=O)n1 [Decitabine] (100 nM),94.9%
8,CC[C@@H]1C(=O)N(C)c2cnc(Nc3ccc(C(=O)NC4CCN(C)CC4)cc3OC)nc2N1C1CCCC1 [BI 2536] (10 nM),78.4%

# Tested on: MCF-10A
# Test: as above
# Conditions: incubation time: 72 h
# Method: as §1
row,Compound,normalised response
1,O=C(O)C1(C(=O)O)CCC1.[NH2-].[NH2-].[Pt+2] [Carboplatin] (100 nM),107%
2,Nc1nc(F)nc2c1ncn2[C@@H]1O[C@H](CO)[C@@H](O)[C@@H]1O [Fludarabine] (100 nM),113%
3,CNC(=O)c1cc(Oc2ccc(NC(=O)Nc3cc(C(C)(C)C)nn3-c3ccc4ncccc4c3)c(F)c2)ccn1 [Rebastinib] (10 nM),114%
4,COc1cc2c(Oc3ccc4[nH]c(C)cc4c3F)ncnc2cc1OCCCN1CCCC1 [Cediranib] (10 nM),97.9%
5,C=CC(=O)N1CCC[C@@H](n2nc(-c3ccc(Oc4ccccc4)cc3)c3c(N)ncnc32)C1 [Ibrutinib] (10 nM),102%
6,O=C(Cc1ccc(-c2ccc(OCCN3CCOCC3)cc2)cn1)NCc1ccccc1 [KX2-391] (100 nM),61%
7,O=C(/C=C/c1cccnc1)NCCCCC1CCN(C(=O)c2ccccc2)CC1 [Daporinad] (10 nM),41.6%
8,Nc1ncn([C@H]2C[C@H](O)[C@@H](CO)O2)c(=O)n1 [Decitabine] (100 nM),101%
9,CC[C@@H]1C(=O)N(C)c2cnc(Nc3ccc(C(=O)NC4CCN(C)CC4)cc3OC)nc2N1C1CCCC1 [BI 2536] (10 nM),82.4%

# Tested on: HCC1143
# Test: as above
# Conditions: incubation time: 72 h
# Method: as §1
row,Compound,normalised response
1,O=C(O)C1(C(=O)O)CCC1.[NH2-].[NH2-].[Pt+2] [Carboplatin] (100 nM),101%
2,Nc1nc(F)nc2c1ncn2[C@@H]1O[C@H](CO)[C@@H](O)[C@@H]1O [Fludarabine] (100 nM),102%
3,CNC(=O)c1cc(Oc2ccc(NC(=O)Nc3cc(C(C)(C)C)nn3-c3ccc4ncccc4c3)c(F)c2)ccn1 [Rebastinib] (10 nM),104%
4,COc1cc2c(Oc3ccc4[nH]c(C)cc4c3F)ncnc2cc1OCCCN1CCCC1 [Cediranib] (10 nM),102%
5,C=CC(=O)N1CCC[C@@H](n2nc(-c3ccc(Oc4ccccc4)cc3)c3c(N)ncnc32)C1 [Ibrutinib] (10 nM),105%
6,O=C(Cc1ccc(-c2ccc(OCCN3CCOCC3)cc2)cn1)NCc1ccccc1 [KX2-391] (100 nM),44.7%
7,O=C(/C=C/c1cccnc1)NCCCCC1CCN(C(=O)c2ccccc2)CC1 [Daporinad] (10 nM),45.2%
8,Nc1ncn([C@H]2C[C@H](O)[C@@H](CO)O2)c(=O)n1 [Decitabine] (100 nM),104%
9,CC[C@@H]1C(=O)N(C)c2cnc(Nc3ccc(C(=O)NC4CCN(C)CC4)cc3OC)nc2N1C1CCCC1 [BI 2536] (10 nM),55.7%

# Tested on: CAL-148
# Test: as above
# Conditions: incubation time: 72 h
# Method: as §1
row,Compound,normalised response
1,O=C(O)C1(C(=O)O)CCC1.[NH2-].[NH2-].[Pt+2] [Carboplatin] (100 nM),102%
2,Nc1nc(F)nc2c1ncn2[C@@H]1O[C@H](CO)[C@@H](O)[C@@H]1O [Fludarabine] (100 nM),107%
3,CNC(=O)c1cc(Oc2ccc(NC(=O)Nc3cc(C(C)(C)C)nn3-c3ccc4ncccc4c3)c(F)c2)ccn1 [Rebastinib] (10 nM),105%
4,COc1cc2c(Oc3ccc4[nH]c(C)cc4c3F)ncnc2cc1OCCCN1CCCC1 [Cediranib] (10 nM),108%
5,C=CC(=O)N1CCC[C@@H](n2nc(-c3ccc(Oc4ccccc4)cc3)c3c(N)ncnc32)C1 [Ibrutinib] (10 nM),109%
6,O=C(Cc1ccc(-c2ccc(OCCN3CCOCC3)cc2)cn1)NCc1ccccc1 [KX2-391] (100 nM),40.6%
7,O=C(/C=C/c1cccnc1)NCCCCC1CCN(C(=O)c2ccccc2)CC1 [Daporinad] (10 nM),115%
8,Nc1ncn([C@H]2C[C@H](O)[C@@H](CO)O2)c(=O)n1 [Decitabine] (100 nM),93.1%
9,CC[C@@H]1C(=O)N(C)c2cnc(Nc3ccc(C(=O)NC4CCN(C)CC4)cc3OC)nc2N1C1CCCC1 [BI 2536] (10 nM),55.6%

# Tested on: Hs578T
# Test: as above
# Conditions: incubation time: 72 h
# Method: as §1
row,Compound,normalised response
1,O=C(O)C1(C(=O)O)CCC1.[NH2-].[NH2-].[Pt+2] [Carboplatin] (100 nM),99.9%
2,Nc1nc(F)nc2c1ncn2[C@@H]1O[C@H](CO)[C@@H](O)[C@@H]1O [Fludarabine] (100 nM),107%
3,CNC(=O)c1cc(Oc2ccc(NC(=O)Nc3cc(C(C)(C)C)nn3-c3ccc4ncccc4c3)c(F)c2)ccn1 [Rebastinib] (10 nM),104%
4,COc1cc2c(Oc3ccc4[nH]c(C)cc4c3F)ncnc2cc1OCCCN1CCCC1 [Cediranib] (10 nM),110%
5,C=CC(=O)N1CCC[C@@H](n2nc(-c3ccc(Oc4ccccc4)cc3)c3c(N)ncnc32)C1 [Ibrutinib] (10 nM),106%
6,O=C(Cc1ccc(-c2ccc(OCCN3CCOCC3)cc2)cn1)NCc1ccccc1 [KX2-391] (100 nM),29.9%
